System: RBC arachidonic acid
Experiment: Red blood cell (RBC) EPA incorporation and arachidonic acid analysis in patients given ethyl-EPA
Type: in vivo, human
Conditions: patients, 0.5, 1, 2 or 4 g of 97% pure ethyl-EPA/day for 12 weeks; FIG. 1, average of several clinical studies
Method: An analysis was performed to assess the impact of red blood cell (RBC) EPA incorporation on arachidonic acid formation. In various studies, patients were randomized, on a double-blind basis, to receive either placebo (liquid paraffin) or 0.5 1, 2 or 4 g of 97% pure ethyl-EPA/day for 12 weeks. All the doses were administered in eight identical appearing capsules. RBCs were analyzed for EPA and AA following in general the methodology of Manku et al. M. S. Manku, D. F. Horrobin, Y. S. Huang and N. Morse, Fatty acids in plasma and red cell membranes in normal humans. Lipids 18 (1983), pp. 906-908).
Venous blood was collected into a tube pretreated with EDTA and centrifuged at 1500 gav for 15 min. The plasma layer and the buffy coat were separated off and the red cells washed with an equal volume of 0.9% saline. Samples were stored at −80° C. prior to analysis. On thawing, the RBCs were suspended in NaCL/H2SO4aq. (17 mmol/l NaCl, 1 mmol/l Sulfuric acid, 1.8 ml), then shaken with methanol (3 ml). Chloroform (6 ml) and C17:O internal standard were added and the sample was stirred vigorously using a vortex mixer. […] The resulting methyl esters of the fatty acids were separated and measured using a Hewlett-Packard HP5890 Series II Plus Gas chromatograph (cp-wax 52CB 25 m capillary column, Chrompack UK). […]

RBC EPA: increased
SMILES: CC/C=C\C/C=C\C/C=C\C/C=C\C/C=C\CCCC(=O)OCC [EPA, eicosapentaenoic acid ethyl ester]

Source: patent US10314803B2, “Pharmaceutical composition comprising eicosapentaenoic acid and nicotinic acid and methods of using same” (Amarin Pharmaceuticals Ireland Limited, priority 2008, dated 2019)
